# Laboratory results published in US10092564B2, “Use of masitinib for treatment of an amyotrophic lateral sclerosis patient subpopulation” (AB SCIENCE, priority 2016, dated 2018).
# Experiments:
# [1] = test system: patients suffering from amyotrophic lateral sclerosis (ALS); test: Study AB10015: randomized, double-blind, placebo-controlled phase 2/3 study of masitinib in combination with riluzole versus placebo in combination with riluzole (interim and final analysis); type: in vivo, human; conditions: for Δ ALSFRS-R = (least squares means) change from baseline to week 48 in ALSFRS-R score: mITT; for Delta [CI] = absolute difference between subpopulations in Δ ALSFRS-R: in points
# Source text: There are two distinct populations of ALS patients: a subpopulation of “normal progressors” and a subpopulation of “faster progressors”. The targeted population for primary analysis is the subpopulation of “normal progressors”. “Normal progressors” are defined as ALS patients whose progression of ALSFRS-R score before randomization is less than 1.1 point per month. This population should represent about 80% of ALS patients. The population of “normal progressors+faster progressors” comprises all ALS patients, “normal progressor” ALS patients or “faster progressor” ALS patients. “Faster progressors” are defined as ALS patients whose progression of ALSFRS-R score before randomization is greater than or equal to 1.1 points per month. Main Inclusion Criteria: • Female or male patient aged between 18 and 75 years of age, with a weight >50 kg and body mass index between 18 and 35 kg/m^2; • Familial or sporadic ALS; • Patient diagnosed with laboratory supported, clinically probable or definite ALS according to the World Federation of Neurology Revised El Escorial criteria [Brooks B R. […] For the morning dose, tablets were taken during breakfast. In case of nausea, the administration took place during lunch. For the evening dose, tablets were taken during dinner. Modified Intent-To-Treat (mITT) dataset—The mITT population will include all ITT patients with probable or definite amyotrophic lateral sclerosis who took at least one dose of study treatment (masitinib or placebo). Change from baseline to week 48 in the revised Amyotrophic Lateral Sclerosis Functional Rating Scale (ALSFRS-R) In accordance with study AB10015 protocol, an interim analysis was planned to be performed after around 50% of the information became available for analysis. At the time of the interim analysis, 192 (50%) out of a planned 381 patients who had been randomized before the 12 Feb. 2015 could have reached the week 48 visit. […] The interim analysis primary endpoint is based on the change from baseline to week 48 in ALSFRS-R. Primary analysis was performed in the mITT “normal progressor” (i.e. non-aggressive or moderately aggressive ALS) subpopulation. […] Missing values of ALSFRS-R at study visit were replaced based on the Modified Last Observation Carried Forward (mLOCF) method. Absolute change from baseline to week 48 in ALSFRS-R was estimated using a model of analysis of covariance (ANCOVA) adjusted on following factors: treatment (masitinib or placebo), and stratification criteria of: ALS patient subpopulation, progression of ALSFRS-R score (point/month) from date of first symptom to baseline, ALSFRS-R score at baseline, site of onset (bulbar versus others), age at baseline; and geographical region. Two-sided (1-alpha) confidence interval of the difference of mean change from baseline to week 48 between groups was calculated. The primary analysis used a re-randomization test. The re-randomization test, also referred to as a randomization test or permutation test, is a type of statistical significance test in which the distribution of the test statistic under the null hypothesis is obtained by calculating all possible values of the test statistic under rearrangements of the labels on the observed data points. The proportion of replicates for which the p-value of treatment factor is at least as small as the p-value of treatment factor from the original data was calculated. In this proportion the observed p-value of treatment factor is also accounted for as one replicate in numerator and denominator. This proportion is the p-value for the randomization test. […] To control overall family-wise type I error rate at the study level, analyses of efficacy was conducted in a stepwise manner (fixed sequence method). Fixed sequence method ensures that the population claimed and treated with a selected dosage will be done by controlling the global family-wise error rate at the 0.0311 level for the primary analysis. […]
# people with ALS = conditions: cited from earlier work
structure (smiles),measurement,setting,value
"Cc1ccc(NC(=O)c2ccc(CN3CCN(C)CC3)cc2)cc1Nc1nc(-c2cccnc2)cs1 [Masitinib (4.5), 4-(4-methylpiperazin-1-ylmethyl)-N-[4-methyl-3-(4-pyridin-3ylthiazol-2-ylamino)phenyl]benzamide]",Δ ALSFRS-R = (least squares means) change from baseline to week 48 in ALSFRS-R score,"[1]; final AB10015, faster progressor subgroup (≥1.1 pts/m), masitinib 4.5 mg/kg/day plus riluzole, comparison with placebo arm",−17.9268
same,Δ ALSFRS-R = (least squares means) change from baseline to week 48 in ALSFRS-R score,"[1]; final AB10015, masitinib 4.5 mg/kg/day treated faster progressors (≥1.1 pts/m), comparison moderately aggressive vs faster progressors",−25.0567
same,Δ ALSFRS-R = (least squares means) change from baseline to week 48 in ALSFRS-R score,"[1]; final AB10015, masitinib 4.5 mg/kg/day treated faster progressors (≥1.1 pts/m), comparison non-aggressive vs faster progressors",−18.2920
same,Δ ALSFRS-R = (least squares means) change from baseline to week 48 in ALSFRS-R score,"[1]; final AB10015, masitinib 4.5 mg/kg/day treated moderately aggressive (≥0.8 to <1.1 pts/m), comparison moderately aggressive vs faster progressors",−15.7258
same,Δ ALSFRS-R = (least squares means) change from baseline to week 48 in ALSFRS-R score,"[1]; final AB10015, masitinib 4.5 mg/kg/day treated moderately aggressive plus aggressive (≥0.8 pts/m), comparison with non-aggressive",−15.9080
same,Δ ALSFRS-R = (least squares means) change from baseline to week 48 in ALSFRS-R score,"[1]; final AB10015, masitinib 4.5 mg/kg/day treated non-aggressive (<0.8 pts/m), comparison non-aggressive vs faster progressors",−7.4509
same,Δ ALSFRS-R = (least squares means) change from baseline to week 48 in ALSFRS-R score,"[1]; final AB10015, masitinib 4.5 mg/kg/day treated non-aggressive (<0.8 pts/m), comparison non-aggressive vs moderately aggressive plus aggressive",−7.8085
same,Delta [CI] = absolute difference between subpopulations in Δ ALSFRS-R,"[1]; final AB10015, masitinib 4.5 mg/kg/day treated patients, moderately aggressive (≥0.8 to <1.1 pts/m) vs faster progressors (≥1.1 pts/m), week 48, CI [−19.4226, 0.761], P=0.0687",−9.3308[−19.4226;
same,Delta [CI] = absolute difference between subpopulations in Δ ALSFRS-R,"[1]; final AB10015, masitinib 4.5 mg/kg/day treated patients, non-aggressive (<0.8 pts/m) vs moderately aggressive plus aggressive (≥0.8 pts/m), week 48, CI [−12.3719, −3.8271], P=0.0003",−8.0995[−12.3719;
same,Δ ALSFRS-R = (least squares means) change from baseline to week 48 in ALSFRS-R score,"[1]; final AB10015, non-aggressive subgroup (<0.8 pts/m), masitinib 4.5 mg/kg/day plus riluzole, comparison with placebo arm",−8.2552
same,Δ ALSFRS-R = (least squares means) change from baseline to week 48 in ALSFRS-R score,"[1]; final AB10015, normal progressor subgroup (<1.1 pts/m), masitinib 4.5 mg/kg/day plus riluzole, comparison with placebo arm",−8.7045
same,Δ ALSFRS-R = (least squares means) change from baseline to week 48 in ALSFRS-R score,"[1]; final AB10015, overall study population (normal progressor and faster progressor), masitinib 4.5 mg/kg/day plus riluzole, comparison with placebo arm",−10.7019
same,conclusion on treatment effectiveness,"[1]; final analysis, ALS patients with progression of ALSFRS-R score prior to treatment initiation of less than 1.1 points per month",effective treatment
same,Δ ALSFRS-R = (least squares means) change from baseline to week 48 in ALSFRS-R score,"[1]; final analysis, masitinib 4.5 mg/kg/day treated faster progressors (>1.1 pts/m), comparison normal vs faster progressors",−19.5855
same,Δ ALSFRS-R = (least squares means) change from baseline to week 48 in ALSFRS-R score,"[1]; final analysis, masitinib 4.5 mg/kg/day treated normal progressors (<1.1 pts/m), comparison normal vs faster progressors",−8.3939
same,Δ ALSFRS-R = (least squares means) change from baseline to week 48 in ALSFRS-R score,"[1]; final analysis, moderately aggressive subgroup (≥0.8 to <1.1 pts/m), masitinib 4.5 mg/kg/day plus riluzole, comparison with placebo arm",−11.0031
same,conclusion on treatment effectiveness,"[1]; final analysis, progression of ALSFRS-R score of at least 1.1 points per month (aggressive ALS)",ineffective treatment
same,conclusion on treatment effectiveness,"[1]; final analysis, progression of ALSFRS-R score of less than 0.8 points per month (non-aggressive ALS)",most effective
same,conclusion on treatment effectiveness,"[1]; final analysis, progression of ALSFRS-R score of ≥0.8 to <1.1 points per month (moderately aggressive ALS), to a lesser extent than non-aggressive",effective
same,difference between treatment-arms (masitinib versus placebo) in ALSFRS-R change from baseline to week 48,"[1]; final, faster progressors subpopulation (≥1.1 points per month), 4.5 mg/kg/day",No significant difference
same,average decrease in ALSFRS-R score,"[1]; final, masitinib 4.5 mg/kg/day treated faster progressors, week 48",19.6 points
same,average decrease in ALSFRS-R score,"[1]; final, masitinib 4.5 mg/kg/day treated normal progressors, week 48",8.4 points
same,difference in decrease of ALSFRS-R score between normal progressors and faster progressors,"[1]; final, masitinib 4.5 mg/kg/day treated patients, week 48, P<0.001",11.2 points
same,treatment effect in terms of ALSFRS-R score of moderately aggressive ALS patients over aggressive ALS patients,"[1]; final, masitinib treated, ≥0.8 to <1.1 vs ≥1.1 points per month",strong trend in treatment effect
same,"retardation in ALSFRS-R score, difference masitinib versus placebo","[1]; final, moderately aggressive ALS patients (≥0.8 to <1.1 points per month), 4.5 mg/kg/day, week 48",2.2 points
same,change in ALSFRS-R score,"[1]; final, moderately aggressive ALS patients (≥0.8 to <1.1 points per month), masitinib 4.5 mg/kg/day, week 48, placebo −13.2",−11 points
same,"retardation in ALSFRS-R score, difference masitinib versus placebo","[1]; final, non-aggressive ALS patients (<0.8 points per month), 4.5 mg/kg/day, week 48",3.4 points
same,change in ALSFRS-R score,"[1]; final, non-aggressive ALS patients (<0.8 points per month), masitinib 4.5 mg/kg/day, week 48, placebo −11.7",−8.3 points
same,difference in ALSFRS-R score between masitinib and placebo,"[1]; final, normal progressors (<1.1 points per month), 4.5 mg/kg/day, week 48",3.4 points
same,average decrease in ALSFRS-R score,"[1]; final, normal progressors (<1.1 points per month), masitinib 4.5 mg/kg/day, week 48, placebo −12.1, P=0.0142",8.7 points
same,difference between treatment-arms (masitinib versus placebo) in ALSFRS-R change from baseline to week 48,"[1]; final, overall study population (normal progressor and faster progressor patients), 4.5 mg/kg/day, P=0.11",no significant difference
same,Δ ALSFRS-R = (least squares means) change from baseline to week 48 in ALSFRS-R score,"[1]; interim AB10015, faster progressor subgroup (≥1.1 points/month), masitinib 4.5 mg/kg/day plus riluzole, comparison with placebo arm",−20.77
same,Δ ALSFRS-R = (least squares means) change from baseline to week 48 in ALSFRS-R score,"[1]; interim AB10015, masitinib 4.5 mg/kg/day treated faster progressors (≥1.1 points/month), subpopulation comparison normal vs faster",−17.90
same,Δ ALSFRS-R = (least squares means) change from baseline to week 48 in ALSFRS-R score,"[1]; interim AB10015, masitinib 4.5 mg/kg/day treated normal progressors (<1.1 points/month), subpopulation comparison normal vs faster",−5.57
same,Δ ALSFRS-R = (least squares means) change from baseline to week 48 in ALSFRS-R score,"[1]; interim AB10015, normal progressor subgroup (<1.1 points/month), masitinib 4.5 mg/kg/day plus riluzole, comparison with placebo arm",−9.02
same,difference between treatment-arms (masitinib versus placebo) in ALSFRS-R change from baseline to week 48,"[1]; interim, faster progressor subpopulation, 4.5 mg/kg/day",No significant difference
same,average decrease in ALSFRS-R score,"[1]; interim, masitinib 4.5 mg/kg/day treated faster progressor (aggressive ALS) patients, week 48",17.9 points
same,average decrease in ALSFRS-R score,"[1]; interim, masitinib 4.5 mg/kg/day treated normal progressor (non-aggressive or moderately aggressive ALS) patients, week 48",5.57 points
same,average decrease in ALSFRS-R score,"[1]; interim, normal progressors, masitinib 4.5 mg/kg/day, baseline to week 48, placebo 14.51, P=0.0032",9.02 points
"Nc1nc2ccc(OC(F)(F)F)cc2s1 [riluzole, 6-(trifluoromethoxy)benzothiazol-2-amine]",effect on patient function,people with ALS; any of the randomized trials considered separately,no beneficial effect
same,effect on bulbar and limb function,"people with ALS; data of the trials combined, not on muscle strength, to be interpreted with caution",small beneficial effect
same,safety of the drug,"people with ALS; riluzole 100 mg, meta-analysis",not a major concern
